{
  "source": "patent US6677350B1",
  "about": "“Beta-fluoroethyl thiourea compounds and use” (priority 1999, dated 2004)",
  "test_system": "M. tuberculosis H37Rv (ATCC 27294)",
  "assay": "In vitro anti-tuberculosis screening, BACTEC 460 radiometric system, percent inhibition of growth",
  "format": "cell-based, Mycobacterium tuberculosis",
  "conditions": "Mtb H37Rv; for inhibition at 12.5 µg/mL: Mycobacterium tuberculosis",
  "note": "Where two headings read alike, the source gives them in different places.",
  "data": [
    {"smiles": "O=C(/C=C/c1ccccc1I)c1ccccc1O", "note": "[Compound 44, 2′-hydroxy-2-iodochalcone]", "values": [
      {"measurement": "inhibition at 12.5 µg/mL", "setting": "12.5 μg/mL, BACTEC 12B medium, read-out: Activity % inhibition at 12.5 μg/mL (chalcones)", "value": 41, "unit": "%"},
      {"measurement": "inhibition at 12.5 µg/mL", "setting": "drug concentration 12.5 μg/mL, read-out: inhibition of the growth of Mtb", "value": 41, "unit": "%"}
    ]},
    {"smiles": "Nc1ccc(C(=O)/C=C/c2ccccc2)cc1", "note": "[Compound 13]", "values": [
      {"measurement": "Activity % inhibition at 12.5 μg/mL (chalcones)", "setting": "12.5 μg/mL, BACTEC 12B medium", "value": 5, "unit": "%"}
    ]},
    {"smiles": "O=C(C=Cc1ccccn1)c1ccccn1", "note": "[Compound 60]", "values": [
      {"measurement": "Activity % inhibition at 12.5 μg/mL (chalcone-like compounds)", "setting": "12.5 μg/mL, BACTEC 12B medium", "value": 42, "unit": "%"}
    ]},
    {"smiles": "COc1ccc(/C=C/C(=O)c2cccc(I)c2O)cc1", "note": "[Compound 49]", "values": [
      {"measurement": "Activity % inhibition at 12.5 μg/mL (chalcones)", "setting": "12.5 μg/mL, BACTEC 12B medium", "value": 0, "unit": "%"},
      {"measurement": "inhibition of the growth of Mtb", "setting": "drug concentration 12.5 μg/mL", "value": 0, "unit": "%"}
    ]},
    {"smiles": "COc1ccc(C=CC(=O)c2ccc(Br)cc2O)cc1", "note": "[Compound 36]", "values": [
      {"measurement": "Activity % inhibition at 12.5 μg/mL (chalcones)", "setting": "12.5 μg/mL, BACTEC 12B medium", "value": 25, "unit": "%"},
      {"measurement": "inhibition of the growth of Mtb", "setting": "drug concentration 12.5 μg/mL", "value": 25, "unit": "%"}
    ]},
    {"smiles": "COc1ccc(-c2cc(=O)c3cc(I)ccc3o2)cc1", "note": "[Compound 107]", "values": [
      {"measurement": "Activity % Inhibition at 12.5 μg/mL (flavones)", "setting": "12.5 μg/mL, BACTEC 12B medium", "value": 15, "unit": "%"}
    ]},
    {"smiles": "O=C(C=Cc1ccccc1)c1ccc(Cl)cc1O", "note": "[Compound 25]", "values": [
      {"measurement": "Activity % inhibition at 12.5 μg/mL (chalcones)", "setting": "12.5 μg/mL, BACTEC 12B medium", "value": 89, "unit": "%"},
      {"measurement": "inhibition of the growth of Mtb", "setting": "drug concentration 12.5 μg/mL", "value": 89, "unit": "%"}
    ]},
    {"smiles": "O=c1cc(-c2ccccc2)oc2ccc(Br)cc12", "note": "[Compound 123]", "values": [
      {"measurement": "anti-TB activity in words", "setting": "12.5 μg/mL", "value": "weakly active or inactive"},
      {"measurement": "Activity % Inhibition at 12.5 μg/mL (flavones)", "setting": "12.5 μg/mL, BACTEC 12B medium", "value": 0, "unit": "%"}
    ]},
    {"smiles": "COc1ccc2c(=O)c(Br)c(-c3ccc(Cl)cc3)oc2c1", "note": "[Compound 103]", "values": [
      {"measurement": "Activity % Inhibition at 12.5 μg/mL (flavones)", "setting": "12.5 μg/mL, BACTEC 12B medium", "value": 19, "unit": "%"}
    ]},
    {"smiles": "COc1ccc(-c2cc(=O)c3ccc(F)cc3o2)cc1", "note": "[Compound 118]", "values": [
      {"measurement": "Activity % Inhibition at 12.5 μg/mL (flavones)", "setting": "12.5 μg/mL, BACTEC 12B medium", "value": 0, "unit": "%"}
    ]},
    {"smiles": "O=c1c(Br)c(-c2ccccc2)oc2ccccc12", "note": "[Compound 108]", "values": [
      {"measurement": "Activity % Inhibition at 12.5 μg/mL (flavones)", "setting": "12.5 μg/mL, BACTEC 12B medium", "value": 13, "unit": "%"}
    ]},
    {"smiles": "O=c1cc(-c2ccccc2)oc2cc(I)ccc12", "note": "[Compound 102]", "values": [
      {"measurement": "anti-TB activity in words", "setting": "12.5 μg/mL", "value": "weakly active or inactive"},
      {"measurement": "Activity % Inhibition at 12.5 μg/mL (flavones)", "setting": "12.5 μg/mL, BACTEC 12B medium", "value": 20, "unit": "%"}
    ]},
    {"smiles": "COc1ccc(-c2cc(=O)c3c(OC)cc(OC)c(I)c3o2)cc1", "note": "[Compound 125]", "values": [
      {"measurement": "Activity % Inhibition at 12.5 μg/mL (flavones)", "setting": "12.5 μg/mL, BACTEC 12B medium", "value": 0, "unit": "%"}
    ]},
    {"smiles": "O=C1c2ccccc2OC(c2ccccc2)C1(Br)Br", "note": "(centres unmarked) [Compound 148]", "values": [
      {"measurement": "Activity % Inhibition at 12.5 μg/mL (flavanones)", "setting": "12.5 μg/mL, BACTEC 12B medium", "value": 0, "unit": "%"}
    ]},
    {"smiles": "O=c1cc(-c2ccccc2O)oc2ccccc12", "note": "[Compound 116]", "values": [
      {"measurement": "Activity % Inhibition at 12.5 μg/mL (flavones)", "setting": "12.5 μg/mL, BACTEC 12B medium", "value": 1, "unit": "%"}
    ]},
    {"smiles": "O=C1CC(c2ccccc2)Oc2ccc(Br)cc21", "note": "(centres unmarked) [Compound 142]", "values": [
      {"measurement": "Activity % Inhibition at 12.5 μg/mL (flavanones)", "setting": "12.5 μg/mL, BACTEC 12B medium", "value": 8, "unit": "%"}
    ]},
    {"smiles": "COc1ccc(C2CC(=O)c3ccc(I)cc3O2)cc1", "note": "(centres unmarked) [Compound 149]", "values": [
      {"measurement": "Activity % Inhibition at 12.5 μg/mL (flavanones)", "setting": "12.5 μg/mL, BACTEC 12B medium", "value": 0, "unit": "%"}
    ]},
    {"smiles": "O=C1c2c(O)cc(O)cc2OC(c2ccc(O)cc2)C1c1c(O[C@@H]2O[C@H](CO)[C@@H](O)[C@H](O)[C@H]2O)cc(O)c2c(=O)cc(-c3ccc(O)cc3)oc12", "note": "(some centres unmarked) [Compound 176, Spicataside]", "values": [
      {"measurement": "Activity % Inhibition at 12.5 μg/mL (biflavonoids)", "setting": "12.5 μg/mL, BACTEC 12B medium", "value": 0, "unit": "%"}
    ]},
    {"smiles": "COc1ccc(-c2cc(=O)c3ccccc3o2)cc1", "note": "[Compound 93]", "values": [
      {"measurement": "Activity % Inhibition at 12.5 μg/mL (flavones)", "setting": "12.5 μg/mL, BACTEC 12B medium", "value": 29, "unit": "%"}
    ]},
    {"smiles": "COc1ccc(/C=C/C(=O)c2ccccc2F)cc1", "note": "[Compound 20]", "values": [
      {"measurement": "Activity % inhibition at 12.5 μg/mL (chalcones)", "setting": "12.5 μg/mL, BACTEC 12B medium", "value": 82, "unit": "%"}
    ]},
    {"smiles": "O=c1cc(-c2ccc(I)cc2)oc2ccccc12", "note": "[Compound 84]", "values": [
      {"measurement": "anti-TB activity in words", "setting": "12.5 μg/mL", "value": "weakly active or inactive"},
      {"measurement": "Activity % Inhibition at 12.5 μg/mL (flavones)", "setting": "12.5 μg/mL, BACTEC 12B medium", "value": 51, "unit": "%"},
      {"measurement": "inhibition of the growth of Mtb", "setting": "drug concentration 12.5 μg/mL", "value": 51, "unit": "%"}
    ]},
    {"smiles": "O=C(/C=C/c1ccccc1)c1cc(Cl)ccc1O", "note": "[Compound 26]", "values": [
      {"measurement": "Activity % inhibition at 12.5 μg/mL (chalcones)", "setting": "12.5 μg/mL, BACTEC 12B medium", "value": 67, "unit": "%"},
      {"measurement": "inhibition of the growth of Mtb", "setting": "drug concentration 12.5 μg/mL", "value": 67, "unit": "%"}
    ]},
    {"smiles": "O=C1C[C@@H](c2ccc(O)c(O)c2)Oc2c1c(O)cc(O)c2[C@H]1C(=O)c2c(O)cc(O)cc2O[C@@H]1c1ccc(O)cc1", "note": "[Compound 172, GB-2a]", "values": [
      {"measurement": "Activity % Inhibition at 12.5 μg/mL (biflavonoids)", "setting": "12.5 μg/mL, BACTEC 12B medium", "value": 0, "unit": "%"}
    ]},
    {"smiles": "O=C1CC(c2ccccc2)Oc2ccc(I)cc21", "note": "(centres unmarked) [Compound 139]", "values": [
      {"measurement": "Activity % Inhibition at 12.5 μg/mL (flavanones)", "setting": "12.5 μg/mL, BACTEC 12B medium", "value": 27, "unit": "%"}
    ]},
    {"smiles": "Nc1ccc(C(=O)C=Cc2cccnc2N)cc1", "note": "[Compound 73]", "values": [
      {"measurement": "Activity % inhibition at 12.5 μg/mL (chalcone-like compounds)", "setting": "12.5 μg/mL, BACTEC 12B medium", "value": 0, "unit": "%"}
    ]},
    {"smiles": "Nc1cccc(/C=C/C(=O)c2ccccc2O)c1", "note": "[Compound 11]", "values": [
      {"measurement": "Activity % inhibition at 12.5 μg/mL (chalcones)", "setting": "12.5 μg/mL, BACTEC 12B medium", "value": 11, "unit": "%"}
    ]}
  ]
}
